Laboratory results taken from ChEMBL document CHEMBL1142172, “Curing Mycobacterium ulcerans infection in mice with a combination of rifampin-streptomycin or rifampin-amikacin” (2007).

How the values were obtained:
[1] = test system: Mycobacterium ulcerans; experiment: Antimycobacterial activity in Mycobacterium ulcerans Cu001 infected BALB/c mouse assessed as mean number of CFU per foot-pad at […], sc after 2 weeks; type: functional
[2] = test system: Mycobacterium ulcerans; experiment: Antimycobacterial activity in Mycobacterium ulcerans Cu001 infected BALB/c mouse assessed as mean number of CFU per foot-pad at 10 mg/kg, sc after 2 weeks; type: functional; settings: route subcutaneous

| Compound | Log10 cfu [1] | Log10 cfu [2] |
| --- | --- | --- |
| NCC[C@H](O)C(=O)N[C@@H]1C[C@H](N)[C@@H](O[C@H]2O[C@H](CN)[C@@H](O)[C@H](O)[C@H]2O)[C@H](O)[C@H]1O[C@H]1O[C@H](CO)[C@@H](O)[C@H](N)[C@H]1O [AMIKACIN] | 3.92 |  |
| CO[C@H]1/C=C/O[C@@]2(C)Oc3c(C)c(O)c4c(O)c(c(/C=N/N5CCN(C)CC5)c(O)c4c3C2=O)NC(=O)/C(C)=C\C=C\[C@H](C)[C@H](O)[C@@H](C)[C@@H](O)[C@@H](C)[C@H](OC(C)=O)[C@@H]1C [RIFAMPIN] |  | 4.13 |
| CN[C@@H]1[C@H](O[C@H]2[C@H](O[C@H]3[C@H](O)[C@@H](O)[C@H](N=C(N)N)[C@@H](O)[C@@H]3N=C(N)N)O[C@@H](C)[C@]2(O)C=O)O[C@@H](CO)[C@H](O)[C@H]1O [STREPTOMYCIN] | 4.13 |  |
